Reference: patent publication US20070155012A1, “Method for production of neurons from cells of a cell line” (priority 2003, published 2007)

Tested on: NT2 cells
Test: Response of NT2 cells to growth factors: count of viable spherical cells after three days of culture
Type: cell-based, human
Conditions: growth factor present exclusively in growth medium NS; viable cells counted after three days of culture into spheres; FIG. 3
Experimental: This step permits to obtain the first passing over into spheres of NT2 cells that are then cultured, preferably at 100000 cells/ml in 75 ml flasks of the FALCON™ (trademark registered by the Falcon company) type having filtering plugs containing 15 ml of growth medium (NS) not containing bovine serum, defined by the following composition: DMEM/F12 (50%/50%), 2 mM glutamine, N2 complement, 0.6% glucose, 20 μg/ml insulin, to which are added extemporaneously growth factors EGF at 20 ng/ml, bFGF at 10 ng/ml, 2 μg/ml heparin or growth factor LIF at 10 ng/ml or 20 n/ml.
The way NT2 cells respond to growth factors […] and bFGF was studied by counting viable spherical cells obtained after three days of culture in the presence either of the one or the other, either of the one and the other of them then dissociated.
Results represented in FIG. 3 show the number of viable cells after three days, whereas the horizontal line indicates culture density.
Although it was found, unexpectedly, that NT2 cells were capable of forming spheres in the absence of growth factors, they proliferate differently under the action of the latter, and according to the type of growth factors added to the growth medium NS.

| Substance | rate of proliferation of NT2 cells multiplied by (with respect to cultures without growth factor) |
| --- | --- |
| EGF: epidermal growth factor, added to growth medium at 20 ng/ml | 1.5 |
| bFGF: basic fibroblast growth factor, added to growth medium at 10 ng/ml | 2.2 |
